# Laboratory results from patent publication US10723706B2, “Perk inhibitors and uses thereof in treating diseases associated with aggregation-prone proteins” (Ramot at Tel-Aviv University Ltd., priority 2016, dated 2020).
# Entries after “also recorded” stand apart in the source; their conditions may differ.
# How the values were obtained:
# STHdhQ111/111 cells = test: Rescue of cells incubated in DMEM without serum and without Tun, PI cell cycle FACS; type: cell-based, murine; conditions: 48 hours in DMEM without serum and without Tun
# Method: STHdhQ7/7 and STHdhQ111/111 cells were grown as described in Leitman et al. [PLoS One 2014, 9(3):e90803].
# After the indicated treatment times in full medium or in DMEM without serum, cells were incubated with propidium iodide (PI) solution ([…]) and read by flow cytometry as described in Leitman et al. [PLoS One 2014, 9(3):e90803]. Cells in sub-G0/G1 were counted as apoptotic/dead cells.
# The activity of the novel inhibitors, compared to A4, in preventing cytotoxicity induced by pathogenic Htt, was then tested. A stable murine striatal cell line expressing full-length polyQ-expanded Htt, STHdhQ^111/111, was used.
# R6/2 transgenic mice = test: Rotarod test in R6/2 HD model mice; type: in vivo, mouse; conditions: 1 mg/kg continuous for 28 days
# Method: Motor activity was assessed by the rotarod test using the San Diego Instrument, Rotor-Rod (San Diego Instruments, CA, USA) (0-25 RPM). R6/2 mice and controls were tested every week after pump transplantation. Each test consisted of 3 consecutive measurements of 5 minutes on 4 rpm, 60 minutes of rest, 3 times 0-40 rpm. The latency to fall was recorded.
# For the therapeutic assessment of MK-28 delivery, Alzet pumps model 1004, with a rate of 0.11 μl/hour and 28 days compound delivery were used. Five groups of mice were studied: (1) Transgenic (TG) treated with MK-28, (2) TG without treatment (pumps with vehicle), (3) Wild-type (WT) treated with MK-28, (4) WT without treatment (pumps with vehicle), (5) WT without pumps.
# Alzet pumps were implanted at 4 weeks of age and MK-28 was administered at 1 mg/kg with continuous dosing for 28 days. This concentration is in a typical clinical dose range. […] Vocalization tests were also performed and survival was assessed. […]
# Rotarod analysis was performed by assessing the maximum performance of each animal during three consecutive trials at different time points. The analysis evaluated the motor behavior of animals starting one week after the pump implantation (equivalent to the mice fifth week of life) and ending by seven weeks after first MK-28 delivery.
# cells = test: Intrinsic cytotoxicity on cells; type: cell-based
# [1] = system: betaTC-tet pancreatic islet beta-cell line; test: Toxicity in pancreatic beta cells; type: cell-based, mouse
# Method: MK-28 toxicity was tested in pancreatic beta cells, the type of cell that is most sensitive when ER stress response pathways are affected. A conditionally transformed mouse pancreatic islet beta-cell line (betaTC-tet), such as described by Efrat [Ann NY Acad Sci 1999, 875:286-293], was used. These cells produce high amounts of insulin, resulting in a high protein load in the ER, making them very sensitive to ER stress and other stimuli, such as cytokine effects. Compromising any of the UPR branches leads to cytotoxicity in these cells. MK-28 was compared to the ER stressor tunicamycin (Tun).
structure (smiles),measurement,setting,value
"CN(/N=C\c1ccc(O)c(O)c1)c1nc(-c2ccccc2)cc(-c2ccccc2)n1 [Compound 3, 2-{N-methyl-N′-(3,4-dihydroxybenzylidene)hydrazinyl}-4,6-diphenylpyrimidine]",protective (rescue) effect without ER stressor,STHdhQ111/111 cells,"strong protective effect, in the low micromolar range"
same,protective (rescue) effect without ER stressor,STHdhQ111/111 cells; listed as MK-28,strong rescue effect
same,Rotarod motor performance of TG mice versus untreated TG,"R6/2 transgenic mice; R6/2 TG mice, p<0.05, listed as MK-28, 1 mg/kg",significant improvement in general motor performance; also recorded: significant improvement in motor function
same,Rotarod motor performance of WT mice,R6/2 transgenic mice; WT mice,no compromised motor performance
same,intrinsic cytotoxicity on cells,cells,neither MPGL1 nor MK-28 exhibited intrinsic cytotoxicity
same,toxicity in pancreatic beta cells,[1],very low toxicity
